Test [1] deals with Histone deacetylase 1 (Homo sapiens, UniProt Q13547). Description: Inhibition of HDAC1 (unknown origin).
For test [2], the target named is Tyrosine-protein kinase JAK1 (Homo sapiens, UniProt P23458). Description: Inhibition of JAK1 (unknown origin).
The nature of test [3]: Inhibition of CD4 (unknown origin).
Test [4] has as its system MV4-11. Nature of the test: Antiproliferative activity against human MV4-11 cells assessed as reduction in cell growth. It counts as functional, cell-based.
For test [5], the system named is KATO III stomach cancer cell line. Nature of the test: cells. The settings on record: Homo sapiens.
Description: Antiproliferative activity against human KATO III stomach cancer cell line

As usually defined, the pIC50 is the IC50 on a negative log10 scale, so that one unit is a factor of ten.

pIC50: −log10 of the molar value.

Sequence of Histone deacetylase 1 (Q13547 whole entry): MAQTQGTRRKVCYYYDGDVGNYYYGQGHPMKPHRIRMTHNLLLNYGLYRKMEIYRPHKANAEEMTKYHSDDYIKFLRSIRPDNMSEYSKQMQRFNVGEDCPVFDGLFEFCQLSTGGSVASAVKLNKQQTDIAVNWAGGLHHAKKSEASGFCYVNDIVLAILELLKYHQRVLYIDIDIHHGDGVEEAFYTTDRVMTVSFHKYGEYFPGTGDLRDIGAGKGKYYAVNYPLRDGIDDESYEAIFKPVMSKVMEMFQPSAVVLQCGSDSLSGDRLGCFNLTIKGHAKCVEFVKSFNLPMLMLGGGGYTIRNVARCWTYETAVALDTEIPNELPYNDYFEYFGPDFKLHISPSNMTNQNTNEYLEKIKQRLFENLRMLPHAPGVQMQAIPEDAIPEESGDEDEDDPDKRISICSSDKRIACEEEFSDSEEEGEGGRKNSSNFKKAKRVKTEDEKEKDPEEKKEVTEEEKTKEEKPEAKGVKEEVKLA
Sequence of Tyrosine-protein kinase JAK1 (P23458 whole entry): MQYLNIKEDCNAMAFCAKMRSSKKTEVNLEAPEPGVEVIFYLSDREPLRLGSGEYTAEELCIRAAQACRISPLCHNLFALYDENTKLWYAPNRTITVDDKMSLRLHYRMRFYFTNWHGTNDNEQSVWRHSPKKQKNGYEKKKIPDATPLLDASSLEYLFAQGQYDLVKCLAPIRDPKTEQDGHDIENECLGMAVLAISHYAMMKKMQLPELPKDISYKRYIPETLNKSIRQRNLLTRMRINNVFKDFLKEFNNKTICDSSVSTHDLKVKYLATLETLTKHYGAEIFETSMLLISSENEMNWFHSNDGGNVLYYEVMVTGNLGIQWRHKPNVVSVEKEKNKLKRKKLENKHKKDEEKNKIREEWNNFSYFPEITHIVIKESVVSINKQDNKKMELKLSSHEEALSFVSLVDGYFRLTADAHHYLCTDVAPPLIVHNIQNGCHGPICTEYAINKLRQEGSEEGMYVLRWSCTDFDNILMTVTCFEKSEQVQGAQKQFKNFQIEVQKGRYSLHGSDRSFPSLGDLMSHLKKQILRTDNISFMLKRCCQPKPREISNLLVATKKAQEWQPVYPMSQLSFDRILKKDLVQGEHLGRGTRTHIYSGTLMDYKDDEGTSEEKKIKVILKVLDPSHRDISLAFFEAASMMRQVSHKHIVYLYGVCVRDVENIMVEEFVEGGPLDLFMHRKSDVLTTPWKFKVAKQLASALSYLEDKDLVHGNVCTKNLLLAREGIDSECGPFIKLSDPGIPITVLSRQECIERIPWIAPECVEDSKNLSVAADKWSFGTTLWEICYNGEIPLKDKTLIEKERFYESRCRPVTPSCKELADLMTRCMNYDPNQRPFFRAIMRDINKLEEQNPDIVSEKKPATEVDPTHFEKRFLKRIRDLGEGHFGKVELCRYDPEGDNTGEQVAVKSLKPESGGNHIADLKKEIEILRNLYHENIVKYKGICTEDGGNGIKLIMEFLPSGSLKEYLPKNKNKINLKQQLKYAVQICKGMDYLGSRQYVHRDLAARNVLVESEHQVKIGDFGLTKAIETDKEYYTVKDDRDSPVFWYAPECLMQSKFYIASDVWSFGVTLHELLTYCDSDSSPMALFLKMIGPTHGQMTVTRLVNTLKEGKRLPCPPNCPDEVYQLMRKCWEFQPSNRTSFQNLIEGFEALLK

On to `CCn1c(C)nc2c(F)cc(-c3nc(Nc4ccc(CNC(=O)CCCCCCC(=O)NO)cc4)ncc3F)cc21`, for which the pIC50 is 7.59 in test [1], 7.66 in test [2] and 8.92 in test [3].

On to `CCNC(=O)c1cc2c(-c3cc(C(C)(C)O)ccc3Oc3c(C)cc(F)cc3C)cn(C)c(=O)c2[nH]1` [ABBV-744], for which the pIC50 in test [4] is 7.40.

Regarding `COc1cc(OC)cc(N(CCNC(C)C)c2ccc3ncc(-c4cnn(C)c4)nc3c2)c1` [ERDAFITINIB], the pIC50 in test [5] was 8.40.

The record behind these values is ChEMBL document CHEMBL5576095, “Research progress of multi-target HDAC inhibitors blocking the BRD4-LIFR-JAK1-STAT3 signaling pathway in the treatment of cancer” (Bioorg Med Chem, 2024).
